Results published in patent publication US20090221715A1, “NOVEL POLYMORPH OF ATOVAQUONE” (priority 2008, published 2009).

Experiment: Bulk density and tapped density comparison of atovaquone crystalline forms
Format: physicochemical
Conditions: powder of the crystalline form

Bulk density	Tapped density	Structure (SMILES)
0.4802 g/mL	0.6402 g/mL	O=C1C(O)=C([C@H]2CC[C@H](c3ccc(Cl)cc3)CC2)C(=O)c2ccccc21 [Form I (ATO-8094P), trans-2-[4-(4-chlorophenyl)cyclohexyl]-3-hydroxy-1,4-naphthoquinone]
0.2975 g/mL	0.4010 g/mL	O=C1C(O)=C([C@H]2CC[C@H](c3ccc(Cl)cc3)CC2)C(=O)c2ccccc21 [Form III (ATO-8110), trans-2-[4-(4-chlorophenyl)cyclohexyl]-3-hydroxy-1,4-naphthoquinone]
0.2353 g/mL	0.3801 g/mL	O=C1C(O)=C([C@H]2CC[C@H](c3ccc(Cl)cc3)CC2)C(=O)c2ccccc21 [Form IPCA-ATO (ATO-8099), trans-2-[4-(4-chlorophenyl)cyclohexyl]-3-hydroxy-1,4-naphthoquinone]
